From the supplement of paper PMC6315032

Legend:
Assay in all cases: apparent dissociation constant (pKDapp, Kinobeads competition, Cheng-Prusoff corrected) (-log10 M); higher = tighter binding
PHKG2 = PHKG2 (UniProt P15735); conditions: affinity matrix / lysate: Kinobeads, mixed HEK293/K-562/placenta lysate
MAP3K3 = MAP3K3 (UniProt Q99759); conditions: affinity matrix / lysate: Kinobeads, mixed HEK293/K-562/placenta lysate
MARK1 = MARK1 (UniProt Q9P0L2); conditions: affinity matrix / lysate: Kinobeads, mixed HEK293/K-562/placenta lysate
TAOK2 = TAOK2 (UniProt Q9UL54); conditions: affinity matrix / lysate: Kinobeads, mixed HEK293/K-562/placenta lysate
TESK1 = TESK1 (UniProt Q15569); conditions: affinity matrix / lysate: Kinobeads, mixed HEK293/K-562/placenta lysate
PI4K2B = PI4K2B (UniProt Q8TCG2); conditions: affinity matrix / lysate: Lipid Kinobeads, mixed HeLa/Jurkat/K-562 lysate
MKNK2 = MKNK2 (UniProt Q9HBH9); conditions: affinity matrix / lysate: Kinobeads, mixed HEK293/K-562/placenta lysate
PDPK1 = PDPK1 (UniProt O15530); conditions: affinity matrix / lysate: Kinobeads, mixed HEK293/K-562/placenta lysate
PKMYT1 = PKMYT1 (UniProt Q99640); conditions: affinity matrix / lysate: Kinobeads, mixed HEK293/K-562/placenta lysate
TYRO3 = TYRO3 (UniProt Q06418); conditions: affinity matrix / lysate: Kinobeads, mixed HEK293/K-562/placenta lysate
MAPK7 = MAPK7 (UniProt Q13164); conditions: affinity matrix / lysate: Kinobeads, mixed HEK293/K-562/placenta lysate
MKNK1 = MKNK1 (UniProt Q9BUB5); conditions: affinity matrix / lysate: Kinobeads, mixed HEK293/K-562/placenta lysate
CLK1 = CLK1 (UniProt P49759); conditions: affinity matrix / lysate: Kinobeads, mixed HEK293/K-562/placenta lysate
EPHA6 = EPHA6 (UniProt Q9UF33); conditions: affinity matrix / lysate: Kinobeads, mixed HEK293/K-562/placenta lysate
PDIK1L = PDIK1L (UniProt Q8N165); conditions: affinity matrix / lysate: Kinobeads, mixed HEK293/K-562/placenta lysate
MAP4K5 = MAP4K5 (UniProt Q9Y4K4); conditions: affinity matrix / lysate: Kinobeads, mixed HEK293/K-562/placenta lysate
YES1 = YES1 (UniProt P07947); conditions: affinity matrix / lysate: Kinobeads, mixed HEK293/K-562/placenta lysate
PDGFRB = PDGFRB (UniProt P09619); conditions: affinity matrix / lysate: Kinobeads, mixed HEK293/K-562/placenta lysate
CHUK = CHUK (UniProt O15111); conditions: affinity matrix / lysate: Kinobeads, mixed HEK293/K-562/placenta lysate
CSNK1D = CSNK1D (UniProt P48730); conditions: affinity matrix / lysate: Kinobeads, mixed HEK293/K-562/placenta lysate
MAP3K5 = MAP3K5 (UniProt Q99683); conditions: affinity matrix / lysate: Kinobeads, mixed HEK293/K-562/placenta lysate
LRRK2 = LRRK2 (UniProt Q5S007); conditions: affinity matrix / lysate: Kinobeads, mixed HEK293/K-562/placenta lysate
MARK2 = MARK2 (UniProt Q7KZI7); conditions: affinity matrix / lysate: Kinobeads, mixed HEK293/K-562/placenta lysate
NTRK1 = NTRK1 (UniProt P04629); conditions: affinity matrix / lysate: Kinobeads, mixed HEK293/K-562/placenta lysate
TEC = TEC (UniProt P42680); conditions: affinity matrix / lysate: Kinobeads, mixed HEK293/K-562/placenta lysate
ZAK = ZAK (UniProt Q9NYL2); conditions: affinity matrix / lysate: Kinobeads, mixed HEK293/K-562/placenta lysate
SGK3 = SGK3 (UniProt Q96BR1); conditions: affinity matrix / lysate: Kinobeads, mixed HEK293/K-562/placenta lysate
PRKDC = PRKDC (UniProt P78527); conditions: affinity matrix / lysate: Lipid Kinobeads, mixed HeLa/Jurkat/K-562 lysate
EPHA3 = EPHA3 (UniProt P29320); conditions: affinity matrix / lysate: Kinobeads, mixed HEK293/K-562/placenta lysate
PRKD1 = PRKD1 (UniProt Q15139); conditions: affinity matrix / lysate: Kinobeads, mixed HEK293/K-562/placenta lysate
CDK7 = CDK7 (UniProt P50613); conditions: affinity matrix / lysate: Kinobeads, mixed HEK293/K-562/placenta lysate
CSNK2A2 = CSNK2A2 (UniProt P19784)
PDGFRA = PDGFRA (UniProt P16234); conditions: affinity matrix / lysate: Kinobeads, mixed HEK293/K-562/placenta lysate
[1] = affinity matrix / lysate: Kinobeads, mixed HEK293/K-562/placenta lysate
[2] = affinity matrix / lysate: Lipid Kinobeads, mixed HeLa/Jurkat/K-562 lysate

| apparent dissociation constant (-log10 M) (PHKG2) | apparent dissociation constant (-log10 M) (MAP3K3) | apparent dissociation constant (-log10 M) (MARK1) | apparent dissociation constant (-log10 M) (TAOK2) | apparent dissociation constant (-log10 M) (TESK1) | apparent dissociation constant (-log10 M) (PI4K2B) | apparent dissociation constant (-log10 M) (MKNK2) | apparent dissociation constant (-log10 M) (PDPK1) | apparent dissociation constant (-log10 M) (PKMYT1) | apparent dissociation constant (-log10 M) (TYRO3) | apparent dissociation constant (-log10 M) (MAPK7) | apparent dissociation constant (-log10 M) (MKNK1) | apparent dissociation constant (-log10 M) (CLK1) | apparent dissociation constant (-log10 M) (EPHA6) | apparent dissociation constant (-log10 M) (PDIK1L) | apparent dissociation constant (-log10 M) (MAP4K5) | apparent dissociation constant (-log10 M) (YES1) | apparent dissociation constant (-log10 M) (PDGFRB) | apparent dissociation constant (-log10 M) (CHUK) | apparent dissociation constant (-log10 M) (CSNK1D) | apparent dissociation constant (-log10 M) (MAP3K5) | apparent dissociation constant (-log10 M) (LRRK2) | apparent dissociation constant (-log10 M) (MARK2) | apparent dissociation constant (-log10 M) (NTRK1) | apparent dissociation constant (-log10 M) (TEC) | apparent dissociation constant (-log10 M) (ZAK) | apparent dissociation constant (-log10 M) (SGK3) | apparent dissociation constant (-log10 M) (PRKDC) | apparent dissociation constant (-log10 M) (EPHA3) | apparent dissociation constant (-log10 M) (PRKD1) | apparent dissociation constant (-log10 M) (CDK7) | apparent dissociation constant (-log10 M) (CSNK2A2; [1]) | apparent dissociation constant (-log10 M) (CSNK2A2; [2]) | apparent dissociation constant (-log10 M) (PDGFRA) | Compound |
| --- | --- | --- | --- | --- | --- | --- | --- | --- | --- | --- | --- | --- | --- | --- | --- | --- | --- | --- | --- | --- | --- | --- | --- | --- | --- | --- | --- | --- | --- | --- | --- | --- | --- | --- |
| < 6 | < 6 | < 6 | < 6 | < 6 | < 6 | < 6 | < 6 | < 6 | < 6 | < 6 | < 6 | < 6 | < 6 | < 6 | < 6 | < 6 | < 6 | < 6 | < 6 | < 6 | < 6 | < 6 | < 6 | < 6 | < 6 | < 6 | < 6 | < 6 | < 6 | < 6 | < 6 | < 6 | < 6 | CCNC(=O)Nc1ccc(-c2nc(N3CCOC[C@@H]3C)c3c(n2)C(C)(C)S(=O)(=O)C3)cc1 [CZ415] |
| < 6 | < 6 | < 6 | < 6 | < 6 | < 6 | < 6 | < 6 | < 6 | < 6 | < 6 | < 6 | < 6 | < 6 | < 6 | < 6 | < 6 | < 6 | < 6 | < 6 | < 6 | < 6 | < 6 | < 6 | < 6 | < 6 | < 6 | 6.18 | < 6 | < 6 | < 6 | < 6 | < 6 | < 6 | COc1ccc(-c2ccc3c(N4CCOC[C@@H]4C)nc(N4CCOC[C@@H]4C)nc3n2)cc1CO [AZD8055] |
